Measurements from patent US9067894B1, “Compound, composition, and method of activating GIRK potassium channel and use of same for treating conditions of interest” (Vanderbilt University, priority 2013, dated 2015).

Biological target: T1, GIRK2 (Homo sapiens, UniProt P48051)
T1 construct: expressed in transfected cells; host or cells: HEK-293
T1 sequence (P48051 1-423): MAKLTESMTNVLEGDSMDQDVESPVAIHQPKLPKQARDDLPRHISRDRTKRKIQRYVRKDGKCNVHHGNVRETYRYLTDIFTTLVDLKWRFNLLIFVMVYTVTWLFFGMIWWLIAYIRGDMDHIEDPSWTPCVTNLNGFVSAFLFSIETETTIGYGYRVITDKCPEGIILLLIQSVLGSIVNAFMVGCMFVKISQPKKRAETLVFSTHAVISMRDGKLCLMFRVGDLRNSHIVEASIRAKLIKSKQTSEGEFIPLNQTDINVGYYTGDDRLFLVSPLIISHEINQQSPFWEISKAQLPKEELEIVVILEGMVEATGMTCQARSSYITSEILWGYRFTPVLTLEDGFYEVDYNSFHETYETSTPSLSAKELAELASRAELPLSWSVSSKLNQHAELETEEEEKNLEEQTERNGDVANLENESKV
Assay: Whole-cell voltage-clamp, GIRK2-expressing HEK-293 cells
Format: cell-based
Details: cell line GIRK2
Description: Cell Line Construction and Cell Culture. HEK-293 cells co-expressing human GIRK1/2 and rat mGlu8 were generated as previously described (Niswender et al., 2008). A HEK-293 cell line (ATCC, Manassas, Va.) expressing human GIRK1 and human GIRK2 was constructed by transfecting HEK-293 cells with GIRK1 and GIRK2 (Origene, Rockville, Md.) cloned into the pBudCE4.1 vector (Life Technologies, Carlsbad, Calif.) using FuGene 6 (Promega, Madison, Wis.) transfection reagent. […]
A single-cell suspension of HEK-293 cells stably transfected with the appropriate ion channels were plated into TC-treated 35 mm polystyrene dishes at ˜15% confluence and incubated overnight in a 5% CO2 cell culture incubator at 37° C. […] Whole cell currents were recorded in 20K extracellular solution at −70 mV using a Pico 1 amplifier (Tecella, Foothill Ranch, Calif.) controlled by WINWCP 4.X (University of Strathclyde, Glasgow, Scotland, UK). […] One day after transfection, cells were plate into 35 mm polystyrene dishes, incubated and recorded as described above. […]
Voltage-clamp data were analyzed by converting current amplitudes to current density by dividing by each cell's membrane capacitance estimated from capacitance compensation. […]

## Cc1cc(NC(=O)Nc2ccc(F)c(F)c2)n(-c2ccccc2)n1 [VU0456810, 1-(3,4-difluorophenyl)-3-(3-methyl-1-phenyl-1H-pyrazol-5-yl)urea]
  EC50 Voltage Clamp: Inactive
